# Experimental data published in patent EP1102746B1, “SUBSTITUTED PHENYLAMIDINES WITH ANTITHROMBOTIC ACTION” (Boehringer Ingelheim Pharma GmbH & Co.KG, priority 1998, dated 2000).
# Assay: Plasma concentration of Verbindung A after oral administration to rhesus monkeys (determined by 3H-BIBU 52 ligand displacement on human platelets against a calibration curve)
# Type: in vivo, Rhesusaffen
# Conditions: rhesus monkey, oral 1 mg/kg, Rhesusaffe, concentration of Verbindung A measured
# Procedure: Beispielsweise wurde die Konzentration der Verbindung A nach oraler Gabe der Verbindungen der Beispiele 1 (Verbindung B) und 1(1) (Verbindung C) der vorliegenden Erfindung im Plasma bestimmt und mit der Plasmakonzentration der Verbindung A nach oraler Gabe der Verbindung A verglichen.
# Nach oraler Gabe von 1 mg/kg der zu untersuchenden Verbindungen am Rhesusaffen wird die Konzentration der Verbindung A im Plasma 4, 8, 12 und 24 Stunden nach Substanzgabe gemessen. Hierzu wird das Rhesusplasma mit einer Suspension von Humanthrombozyten in Plasma und ^3H-BIBU 52 (siehe DE-A-4,214,245) als Ligand inkubiert. Der freie und gebundene Ligand wird durch Zentrifugation getrennt und durch Szintillationszählung quantitativ bestimmt. Aus der Menge des gebundenen Liganden wird anhand einer Eichkurve die Konzentration der Verbindung A errechnet.
# Dazu wird aus einer Antikubitalvene Spenderblut entnommen und mit Trinatriumzitrat antikoaguliert (Endkonzentration: 13 mMol/l). Das Blut wird 10 Minuten bei 170 x g zentrifugiert und das überstehende plättchenreiche Plasma (PRP) abgenommen. Das Restblut wird noch einmal bei 3200 x g scharf abzentrifugiert und das überstehende plättchenarme Plasma (PPP) abgenommen.
# Für die Eichkurve zur Berechnung der Konzentration wird zu 995 µl PPP 5 µl Lösung der Verbindung A zugesetzt (Endkonzentration 5000 nMol/l). Aus dieser Plasmaprobe werden mit PPP weitere Plasmaproben verdünnt bis zu einer Endkonzentration von 2,5 nMol/l.
# Zu 150 µl Plasmaprobe vom Rhesusaffen oder Eichkurvenplasma werden 10 µl ^3H-BIBU 52 (Endkonzentration 10 nMol/l), 10 µl ^14C-Sucrose (370 Bq) und 80 µl PRP gegeben und bei Raumtemperatur 20 Minuten inkubiert. Anschließend werden die Proben 5 Minuten bei 2000 x g zentrifugiert und der Überstand abgezogen. 100 µl des Überstandes werden versetzt mit 100 µl NaOH 0,2 Mol/l, 15 µl HCl 5 Mol/l und 2 ml Szintillator und die ^3H- und ^14C-Radioaktivität quantitativ gemessen. Das Pellet wird in 200 µl NaOH 0,2 Mol/l gelöst. 180 µl davon werden versetzt mit 15 µl HCl 5 Mol/l und 2 ml Szintillator und die ^3H- und ^14C-Radioaktivität gemessen. Das im Pellet noch verbliebene Restplasma wird aus dem ^14C-Gehalt bestimmt und abgezogen. Die Menge des gebundenen Liganden wird aus dem ^3H-Gehalt bestimmt. Die Menge des gebundenen Liganden wird gegen die Konzentration des Eichkurvenplasmas aufgetragen. Die Konzentration der Verbindung A im Rhesusplasma wird aus der Menge des gebundenen Liganden in der betreffenden Plasmaprobe im Vergleich mit der Eichkurve errechnet.
# Die nachfolgende Tabelle enthält die gefundenen Werte: […]
smiles,measurement,setting,value
"N=C(N)c1ccc(NC(=O)CCC2CCN(CC(=O)O)CC2)cc1 [Verbindung A, 4-[2-[(4-Amidinophenyl)aminocarbonyl]ethyl]-1-carboxymethyl-piperidin]",concentration at 4 h,"4 h after dosing, read-out: Konz. von A in [nM], 4h",174 nM
same,concentration at 8 h,"8 h after dosing, read-out: Konz. von A in [nM], 8h",38 nM
same,concentration at 12 h,"12 h after dosing, read-out: Konz. von A in [nM], 12h",25 nM
same,concentration at 24 h,"24 h after dosing, read-out: Konz. von A in [nM], 24h",3 nM
